Assay results as given in PubChem BioAssay AID256 (DTP/NCI, 2004).
Values joined by “and” are separate entries in the source; they are usually repeats but may differ in a detail not shown here. Equal entries are not always repeated. Toxic doses and inconclusive results are not listed. How the source made its calls: active means survival T/C of 150% or more; inactive means T/C below 125% in these data. Residues, ends and D or L forms follow the SMILES beside them.

Test system: CD2F1 mice, L1210 leukemia ip, survival T/C
Assay: NCI In Vivo Anticancer Drug Screen. Data for tumor model L1210 Leukemia (intraperitoneal) in CD2F1 (CDF1) mice
Conditions: higher = longer survival
In short: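 Activity against a transplanted murine tumor was judged by comparing the compound group with a vehicle group. The outcome in the treated animals was divided by that in the controls.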

[1] = endpoint: mean survival time, dose: 100.0 mg/kg/injection, schedule: Q01DX009 (ip), vehicle: saline with Tween-80
[2] = endpoint: mean survival time, dose: 200.0 mg/kg/injection, schedule: Q01DX009 (ip), vehicle: saline with Tween-80
[3] = endpoint: mean survival time, dose: 400.0 mg/kg/injection, schedule: Q01DX009 (ip), vehicle: saline with Tween-80
[4] = endpoint: mean survival time, dose: 100.0 mg/kg/injection, schedule: Q04DX003 (ip), vehicle: saline with Tween-80
[5] = endpoint: mean survival time, dose: 200.0 mg/kg/injection, schedule: Q04DX003 (ip), vehicle: saline with Tween-80
[6] = endpoint: mean survival time, dose: 400.0 mg/kg/injection, schedule: Q04DX003 (ip), vehicle: saline with Tween-80
[7] = endpoint: mean survival time, dose: 50.0 mg/kg/injection, schedule: Q01DX009 (ip), vehicle: saline with Tween-80
[8] = endpoint: mean survival time, dose: 100.0 mg/kg/injection, schedule: Q04DX003 (ip), vehicle: saline
[9] = endpoint: mean survival time, dose: 100.0 mg/kg/injection, schedule: Q04DX002 (ip), vehicle: saline with Tween-80
[10] = endpoint: mean survival time, dose: 200.0 mg/kg/injection, schedule: Q04DX002 (ip), vehicle: saline with Tween-80
[11] = endpoint: mean survival time, dose: 400.0 mg/kg/injection, schedule: Q04DX002 (ip), vehicle: saline with Tween-80
[12] = endpoint: mean survival time, dose: 25.0 mg/kg/injection, schedule: Q04DX003 (ip), vehicle: saline with Tween-80
[13] = endpoint: mean survival time, dose: 50.0 mg/kg/injection, schedule: Q04DX003 (ip), vehicle: saline with Tween-80
[14] = endpoint: mean survival time, dose: 25.0 mg/kg/injection, schedule: Q04DX002 (ip), vehicle: saline with Tween-80
[15] = endpoint: mean survival time, dose: 50.0 mg/kg/injection, schedule: Q04DX002 (ip), vehicle: saline with Tween-80
[16] = endpoint: mean survival time, dose: 100.0 mg/kg/injection, schedule: Q04DX002 (ip), vehicle: saline
[17] = endpoint: mean survival time, dose: 200.0 mg/kg/injection, schedule: Q04DX002 (ip), vehicle: saline
[18] = endpoint: mean survival time, dose: 400.0 mg/kg/injection, schedule: Q04DX002 (ip), vehicle: saline
[19] = endpoint: mean survival time, dose: 100.0 mg/kg/injection, schedule: Q01DX001 (ip), vehicle: saline with Tween-80
[20] = endpoint: mean survival time, dose: 200.0 mg/kg/injection, schedule: Q01DX001 (ip), vehicle: saline with Tween-80
[21] = endpoint: mean survival time, dose: 400.0 mg/kg/injection, schedule: Q01DX001 (ip), vehicle: saline with Tween-80
[22] = endpoint: mean survival time, dose: 25.0 mg/kg/injection, schedule: Q01DX009 (ip), vehicle: saline
[23] = endpoint: mean survival time, dose: 50.0 mg/kg/injection, schedule: Q01DX009 (ip), vehicle: saline

Measured: T/C

CCOC(=O)Nc1ccc(F)cc1F
inactive: [1] 94 % of control | [2] 94 % of control | [3] 100 % of control

S=C1SCCN1c1ccccc1
inactive: [1] 96 % of control | [4] 103 % of control | [2] 96 % of control | [5] 101 % of control | [3] 95 % of control | [6] 100 % of control

C=CCOCC(COCC=C)OC1CCS(=O)(=O)C1 (stereo not given)
inactive: [7] 101 % of control | [1] 97 % of control | [2] 93 % of control

CN(C)P1(N)=NP(N)(N(C)C)=NP(N)(N(C)C)=N1 (stereo not given)
inactive: [8] 100 % of control | endpoint: mean survival time, dose: 200.0 mg/kg/injection, schedule: Q04DX003 (ip), vehicle: saline 94 % of control | endpoint: mean survival time, dose: 400.0 mg/kg/injection, schedule: Q04DX003 (ip), vehicle: saline 96 % of control

CC(C)(C#N)OC(=O)Nc1cccc(Cl)c1
inactive: [9] 93 % of control | [10] 90 % of control | [11] 86 % of control

O=S(=O)(/N=C1\c2ccccc2/C(=N\S(=O)(=O)c2ccccc2)C2C3C=CC(C3)C12)c1ccccc1 (stereo not given)
inactive: endpoint: mean survival time, dose: 25.0 mg/kg/injection, schedule: Q01DX001 (ip), vehicle: saline sonified 107 % of control | endpoint: mean survival time, dose: 50.0 mg/kg/injection, schedule: Q01DX001 (ip), vehicle: saline sonified 102 % of control | endpoint: mean survival time, dose: 100.0 mg/kg/injection, schedule: Q01DX001 (ip), vehicle: saline sonified 101 % of control

Cn1cnc2ccc(Cl)cc21
inactive: [7] 102 % of control | [1] 98 % of control | [2] 95 % of control

N=C(N)c1cc(Cl)c(OCc2ccccc2)c(Cl)c1
inactive: [12] 97 % of control | [13] 96 % of control

CCOC(=O)/C(O)=C\c1cc(OC)nnc1Cl
inactive: endpoint: mean survival time, dose: 12.5 mg/kg/injection, schedule: Q04DX002 (ip), vehicle: saline with Tween-80 114 % of control | [14] 101 % of control | [15] 101 % of control

NC1CCC(=O)NC1c1ccccc1 (stereo not given)
inactive: [16] 97 % of control | [17] 101 % of control | [18] 101 % of control

CCOc1ccc(NC(=S)NC(=O)/C=C/c2ccccc2)cc1
inactive: endpoint: mean survival time, dose: 12.5 mg/kg/injection, schedule: Q01DX009 (ip), vehicle: saline with Tween-80 93 % of control and 96 % of control | [19] 95 % of control | [9] 95 % of control and 98 % of control | [4] 93 % of control | [20] 100 % of control | [10] 94 % of control and 97 % of control | [5] 96 % of control | [21] 93 % of control | [3] 108 % of control and 111 % of control | [11] 94 % of control and 101 % of control | [6] 96 % of control

CNC(C)C(O)c1ccccc1 (stereo not given)
inactive: [7] 100 % of control | [1] 97 % of control

Clc1ccccc1P(c1ccccc1)c1ccccc1
inactive: [14] 100 % of control | [15] 100 % of control | [9] 100 % of control

N#CC(C(=O)O)C1CCCCC1=O (stereo not given)
inactive: endpoint: median survival time, dose: 50.0 mg/kg/injection, schedule: Q04DX002 (ip), vehicle: saline with Tween-80 100 % of control | endpoint: median survival time, dose: 100.0 mg/kg/injection, schedule: Q04DX002 (ip), vehicle: saline with Tween-80 100 % of control | endpoint: median survival time, dose: 200.0 mg/kg/injection, schedule: Q04DX002 (ip), vehicle: saline with Tween-80 100 % of control

CCCCS(=O)(=O)c1ccc(Cl)cc1
inactive: [4] 96 % of control | [5] 100 % of control | [6] 105 % of control

CC(C)C(NC(=O)C(NC(=O)C(CCCN=C(N)N)NC(=O)C(N)CCCCN)C(C)C)C(N)=O (stereo not given) (H-KRVV-NH2; configuration not given here)
inactive: endpoint: mean survival time, dose: 25.0 mg/kg/injection, schedule: Q01DX009 (ip), vehicle: water 95 % of control | endpoint: mean survival time, dose: 50.0 mg/kg/injection, schedule: Q01DX009 (ip), vehicle: water 100 % of control | endpoint: mean survival time, dose: 100.0 mg/kg/injection, schedule: Q01DX009 (ip), vehicle: water 108 % of control | endpoint: mean survival time, dose: 200.0 mg/kg/injection, schedule: Q01DX009 (ip), vehicle: water 103 % of control

COC(=O)N(C)c1nc(-c2ccccc2)nc2nonc12
inactive: endpoint: mean survival time, dose: 12.5 mg/kg/injection, schedule: Q01DX005 (ip), vehicle: saline with Tween-80 100 % of control | endpoint: mean survival time, dose: 25.0 mg/kg/injection, schedule: Q01DX005 (ip), vehicle: saline with Tween-80 96 % of control | endpoint: mean survival time, dose: 50.0 mg/kg/injection, schedule: Q01DX005 (ip), vehicle: saline with Tween-80 94 % of control | endpoint: mean survival time, dose: 100.0 mg/kg/injection, schedule: Q01DX005 (ip), vehicle: saline with Tween-80 90 % of control

CCCCCCCCCCCCCCCCOc1ccc(C(=O)CC(=O)OC)cc1
inactive: [19] 86 % of control | [20] 89 % of control | [21] 91 % of control

CCC(C#N)=C1CCCCC1
inactive: endpoint: mean survival time, dose: 25.0 mg/kg/injection, schedule: Q04DX003 (ip), vehicle: saline 93 % of control | endpoint: mean survival time, dose: 50.0 mg/kg/injection, schedule: Q04DX003 (ip), vehicle: saline 91 % of control | [8] 91 % of control

CCOP(=O)(NCCOC)OCC
inactive: [22] 94 % of control | [12] 101 % of control | [23] 91 % of control | [13] 94 % of control | endpoint: mean survival time, dose: 100.0 mg/kg/injection, schedule: Q01DX009 (ip), vehicle: saline 88 % of control | [4] 101 % of control

C=CC(NC(=O)CN)C(=O)O (stereo not given)
inactive: [19] 115 % of control | [16] 107 % of control | [20] 105 % of control | [17] 93 % of control | [21] 114 % of control | [18] 110 % of control

C[S+]1C=Cc2ccccc2C1c1ccc(Cl)cc1 (stereo not given)
inactive: endpoint: mean survival time, dose: 12.5 mg/kg/injection, schedule: Q04DX002 (ip), vehicle: Klucel (hydroxypropylcellulose) (HPC) 103 % of control | endpoint: mean survival time, dose: 25.0 mg/kg/injection, schedule: Q04DX002 (ip), vehicle: Klucel (hydroxypropylcellulose) (HPC) 100 % of control | endpoint: mean survival time, dose: 50.0 mg/kg/injection, schedule: Q04DX002 (ip), vehicle: Klucel (hydroxypropylcellulose) (HPC) 105 % of control

N#CC[CH2][Sn]([Br])([Br])[CH2]CC#N
inactive: endpoint: mean survival time, dose: 0.78 mg/kg/injection, schedule: Q01DX009 (ip), vehicle: saline 97 % of control | endpoint: mean survival time, dose: 1.56 mg/kg/injection, schedule: Q01DX009 (ip), vehicle: saline 94 % of control | endpoint: mean survival time, dose: 3.12 mg/kg/injection, schedule: Q01DX009 (ip), vehicle: saline 92 % of control and 98 % of control | endpoint: mean survival time, dose: 6.25 mg/kg/injection, schedule: Q01DX009 (ip), vehicle: saline 105 % of control and 107 % of control | endpoint: mean survival time, dose: 12.5 mg/kg/injection, schedule: Q01DX009 (ip), vehicle: saline 94 % of control and 101 % of control and 107 % of control | [22] 95 % of control and 97 % of control | [23] 89 % of control

COC(=O)C(Br)CCC(Br)C(=O)OC (stereo not given)
inactive: [13] 94 % of control | [1] 95 % of control | [4] 94 % of control | [2] 103 % of control | [5] 94 % of control
